Where two headings read alike, the source gives them in different places.
Test: Food effect cross-over study, 200 mg (25 mg tablets), healthy volunteers: plasma pharmacokinetics
Type: in vivo, human
Conditions: for concentration at 36 h / concentration at 48 h / concentration at 72 h / AUC(0-inf) / AUC(0-t) / Cmax / Tmax / MRT / half-life: human, plasma; for concentration at 36 h: 36 hours postdose; for concentration at 48 h: 48 hours postdose; for concentration at 72 h: 72 hours postdose
Text: This example describes a clinical study for establishing, in healthy volunteers, the effect of a high fat, high caloric meal on the PK profile of Compound I, as compared to administration of the drug in the fasted state. The study also was intended to determine the safety and tolerability after a single oral dose of Compound I in the fed and fasted state in healthy volunteers. The measurements of PK, PD, and other clinical parameters were done as described in Example 1 above.
This study was an open-label, randomized, two-period cross-over study in healthy volunteers aged 18-55 years. Subjects were screened up to 28 days before the first treatment period. Subjects were admitted to the clinical site on Day −1 (the day before dosing) of Period 1. Approximately half of the subjects randomly received a single dose of Compound I on Day 1 of the first treatment period after the ingestion of a high fat, high caloric breakfast, and the remainder were closed in the fasted state. Any subject with a preclose resting HR≥95 beats per minute (bpm) was considered ineligible and was not treated. Any subjects with an acute gastrointestinal disorder which could impact drug/food absorption (e.g., vomiting, diarrhea) were rescheduled. Subjects were confined to the clinic until Day 4, and discharged after the 72-hour postclose PK and laboratory samples and vital signs were obtained. After a washout between dosing from 7 to 10 days (or, after consultation with the Investigator, up to 21 days after initial dosing if the subject was unable to attend within the 7 to 10-day window), the subject was admitted for Period 2. The sequence of fed/fasted versus fasted/fed periods was randomized. Subjects returned after the second treatment period for a safety follow-up visit on Day 7 (±1 day).
In both treatment periods, Compound I was administered with 240 mL of water. In the fasted state, the subjects fasted for 10 hours before and for 4 hours after the administration of Compound I. Water could have been ingested up to 1 hour before and after 1 hour post dosing. In the fed state, the subjects fasted for 10 hours before and for 4 hours after the ingestion of the meal, but could have ingested water up to 1 hour before and 1 hour after dosing. In the fed state, the subjects started ingesting the high fat, high caloric meal within 30 minutes prior to Compound I administration and finished the meal within 30 minutes. The meal contained approximately 800 to 1000 calories with about 50% of the calories from fat. The meal consisted of approximately 150 calories from protein, 250 calories from carbohydrate, and 500-600 calories from fat. An example of the meal was a breakfast consisting of two eggs fried in butter, two strips of bacon, two slices of buttered toast, 4 ounces of hash brown potatoes, and 8 ounces of whole milk.
Each subject received two oral doses of 200 mg of Compound I formulated as 25 mg tablets (8 tablets) in a randomized, cross-over fashion, once in the fasted state and the other time after the ingestion of a high fat, high caloric breakfast. There was a washout of between 7 and 21 days between the administrations of the two closes. The Compound I drug substance was a crystalline, free-base, synthetic molecule with a molecular weight of 435.4.
Plasma drug concentrations were measured as described in Example 1 above. Blood samples to measure Compound I plasma concentration were collected at various time points, including on Day 1 preclose (1 hour prior to dosing) and at 1 (±5 min), 2 (±5 min), 3 (±5 min), 4 (+10 min), 5 (+10 min), 6 (+10 min), 9 (+20 min), 12 (+20 min), 18 (+30 min), 24 (+30 min), 36 (+30 min), 48 (+30 min), and 72 (+30 min) hours postclose on both treatment periods.
To assess the effect of food on the PK of Compound I, the two one-sided t-test procedure was used to construct 90% CI around the geometric mean ratios (fed/fasted) of plasma AUCinf, AUClast, and Cmax. […]

[1] = oral, Fed, read-out: Plasma concentration, Geometric Mean
[2] = oral, Fed, read-out: Plasma concentration, Mean
[3] = oral, Fed, read-out: Plasma concentration, Median
[4] = oral, Fasted, read-out: Plasma concentration, Geometric Mean
[5] = oral, Fasted, read-out: Plasma concentration, Mean
[6] = oral, Fasted, read-out: Plasma concentration, Median
[7] = subjects who completed both fasted and fed periods (N = 9)
[8] = subjects who completed both periods (N = 9)

`Cn1cc(S(=O)(=O)[C@@](C)(F)C2CCN(C(=O)Nc3ccon3)CC2)c(C(F)F)n1` [Compound I, (R)-4-(1-((3-(difluoromethyl)-1-methyl-1H-pyrazol-4-yl)sulfonyl)-1-fluoroethyl)-N-(isoxazol-3-yl)piperidine-1-carboxamide] showed a concentration at 36 h [1] of 834 ng/mL, a concentration at 36 h [2] of 881 ng/mL and a concentration at 36 h [3] of 905 ng/mL. It also gave a concentration at 48 h [4] of 306 ng/mL, a concentration at 48 h [5] of 331 ng/mL and a concentration at 48 h [6] of 346 ng/mL. It also gave a concentration at 48 h [1] of 476 ng/mL, a concentration at 48 h [2] of 526 ng/mL and a concentration at 48 h [3] of 549 ng/mL. It also gave a concentration at 72 h [4] of 93.2 ng/mL, a concentration at 72 h [5] of 108 ng/mL and a concentration at 72 h [6] of 112 ng/mL. It also gave a concentration at 72 h [1] of 129 ng/mL, a concentration at 72 h [2] of 161 ng/mL and a concentration at 72 h [3] of 143 ng/mL. It also gave an AUC(0-inf) (oral, N = 11, read-out: AUCinf, Fasted LSGM) of 59400 ng·h/mL, an AUC(0-inf) (oral, N = 11, read-out: AUCinf, Fed LSGM) of 91600 ng·h/mL and an AUC(0-t) (oral, N = 11, read-out: AUClast, Fasted LSGM) of 57400 ng·h/mL. For the same molecule, the AUC(0-t) (oral, N = 11, read-out: AUClast, Fed LSGM) was 88400 ng·h/mL, the Cmax (oral, N = 11, read-out: Cmax, Fasted LSGM) was 2300 ng/mL and the Cmax (oral, N = 11, read-out: Cmax, Fed LSGM) was 3640 ng/mL. The Cmax (oral, fasted state, read-out: Cmax of mean plasma concentrations) was 2310 ng/mL, the Cmax (oral, fasted state, read-out: Cmax, Mean (SD)) was 2350 ng/mL and the Tmax (oral, fasted state, read-out: Tmax, Median (range)) was 5 h. For the same molecule, the Tmax (oral, fasted state, read-out: tmax of mean plasma concentrations) was 5 h, the Cmax (oral, fed state, read-out: Cmax of mean plasma concentrations) was 3200 ng/mL and the Cmax (oral, fed state, read-out: Cmax, Mean (SD)) was 3680 ng/mL. For the same molecule, the Tmax (oral, fed state, read-out: Tmax, Median (range)) was 5.5 h, the Tmax (oral, fed state, read-out: tmax of mean plasma concentrations) was 6 h and the AUC(0-inf) (oral, subjects who completed both fasted and fed periods (N = 9), read-out: AUCinf, Fasted LSGM) was 61100 ng·h/mL. It also gave an AUC(0-inf) (oral, subjects who completed both fasted and fed periods (N = 9), read-out: AUCinf, Fed LSGM) of 93900 ng·h/mL, an AUC(0-t) (oral, subjects who completed both fasted and fed periods (N = 9), read-out: AUClast, Fasted LSGM) of 59000 ng·h/mL and an AUC(0-t) (oral, subjects who completed both fasted and fed periods (N = 9), read-out: AUClast, Fed LSGM) of 90500 ng·h/mL. The Cmax (oral, subjects who completed both fasted and fed periods (N = 9), read-out: Cmax, Fasted LSGM) was 2370 ng/mL, the Cmax (oral, subjects who completed both fasted and fed periods (N = 9), read-out: Cmax, Fed LSGM) was 3700 ng/mL and the AUC(0-inf) (po, single 200 mg oral dose, Fasted (N = 10), read-out: AUCinf, Geometric Mean) was 61000 ng·h/mL. For the same molecule, the AUC(0-inf) (po, single 200 mg oral dose, Fasted (N = 10), read-out: AUCinf, Mean) was 62600 ng·h/mL, the AUC(0-inf) (po, single 200 mg oral dose, Fasted (N = 10), read-out: AUCinf, Median) was 66700 ng·h/mL and the AUC(0-t) (po, single 200 mg oral dose, Fasted (N = 10), read-out: AUClast, Geometric Mean) was 58800 ng·h/mL. The AUC(0-t) (po, single 200 mg oral dose, Fasted (N = 10), read-out: AUClast, Mean) was 60200 ng·h/mL, the AUC(0-t) (po, single 200 mg oral dose, Fasted (N = 10), read-out: AUClast, Median) was 64400 ng·h/mL and the Cmax (po, single 200 mg oral dose, Fasted (N = 10), read-out: Cmax, Geometric Mean) was 2320 ng/mL. It also gave a Cmax (po, single 200 mg oral dose, Fasted (N = 10), read-out: Cmax, Mean) of 2350 ng/mL, a Cmax (po, single 200 mg oral dose, Fasted (N = 10), read-out: Cmax, Median) of 2400 ng/mL and an MRT (po, single 200 mg oral dose, Fasted (N = 10), read-out: MRT, Geometric Mean) of 22.3 h. The MRT (po, single 200 mg oral dose, Fasted (N = 10), read-out: MRT, Mean) was 22.6 h, the MRT (po, single 200 mg oral dose, Fasted (N = 10), read-out: MRT, Median) was 23.9 h and the half-life (po, single 200 mg oral dose, Fasted (N = 10), read-out: T1/2, z, Geometric Mean (converted)) was 14.1 h. It also gave a half-life (po, single 200 mg oral dose, Fasted (N = 10), read-out: T1/2, z, Mean (converted)) of 14.3 h, a half-life (po, single 200 mg oral dose, Fasted (N = 10), read-out: T1/2, z, Median (converted)) of 14.9 h and a Tmax (po, single 200 mg oral dose, Fasted (N = 10), read-out: Tmax, Geometric Mean) of 4.58 h. The Tmax (po, single 200 mg oral dose, Fasted (N = 10), read-out: Tmax, Mean) was 4.7 h, the Tmax (po, single 200 mg oral dose, Fasted (N = 10), read-out: Tmax, Median) was 5 h and the AUC(0-inf) (po, single 200 mg oral dose, Fed (N = 10), read-out: AUCinf, Geometric Mean) was 91600 ng·h/mL. It also gave an AUC(0-inf) (po, single 200 mg oral dose, Fed (N = 10), read-out: AUCinf, Mean) of 93500 ng·h/mL, an AUC(0-inf) (po, single 200 mg oral dose, Fed (N = 10), read-out: AUCinf, Median) of 94000 ng·h/mL and an AUC(0-t) (po, single 200 mg oral dose, Fed (N = 10), read-out: AUClast, Geometric Mean) of 88400 ng·h/mL. For the same molecule, the AUC(0-t) (po, single 200 mg oral dose, Fed (N = 10), read-out: AUClast, Mean) was 89900 ng·h/mL, the AUC(0-t) (po, single 200 mg oral dose, Fed (N = 10), read-out: AUClast, Median) was 89300 ng·h/mL and the Cmax (po, single 200 mg oral dose, Fed (N = 10), read-out: Cmax, Geometric Mean) was 3640 ng/mL. The Cmax (po, single 200 mg oral dose, Fed (N = 10), read-out: Cmax, Mean) was 3680 ng/mL, the Cmax (po, single 200 mg oral dose, Fed (N = 10), read-out: Cmax, Median) was 3770 ng/mL and the MRT (po, single 200 mg oral dose, Fed (N = 10), read-out: MRT, Geometric Mean) was 22.6 h. For the same molecule, the MRT (po, single 200 mg oral dose, Fed (N = 10), read-out: MRT, Mean) was 23.1 h, the MRT (po, single 200 mg oral dose, Fed (N = 10), read-out: MRT, Median) was 23.6 h and the half-life (po, single 200 mg oral dose, Fed (N = 10), read-out: T1/2, z, Geometric Mean (converted)) was 13.6 h. The half-life (po, single 200 mg oral dose, Fed (N = 10), read-out: T1/2, z, Mean (converted)) was 13.8 h, the half-life (po, single 200 mg oral dose, Fed (N = 10), read-out: T1/2, z, Median (converted)) was 13.5 h and the Tmax (po, single 200 mg oral dose, Fed (N = 10), read-out: Tmax, Geometric Mean) was 6.02 h. The Tmax (po, single 200 mg oral dose, Fed (N = 10), read-out: Tmax, Mean) was 6.9 h, the Tmax (po, single 200 mg oral dose, Fed (N = 10), read-out: Tmax, Median) was 5.5 h and the “AUCinf, Geometric Mean Ratio - Fed/Fasted (% of Reference)” value [7] was 153.63%. For the same molecule, the “AUClast, Geometric Mean Ratio - Fed/Fasted (% of Reference)” value [7] was 153.20%, the “Cmax, Geometric Mean Ratio - Fed/Fasted (% of Reference)” value [7] was 156.43% and the “Cmax, geometric mean ratio (fed/fasted)” value [8] was 156.43%. For the same molecule, the “increases for AUCinf, AUC0-t and Cmax in the fed state” value [8] was “approximately 50%”.

Reference: US20220265629A1, “TREATMENT OF SYSTOLIC DYSFUNCTION AND HEART FAILURE WITH REDUCED EJECTION FRACTION WITH THE COMPOUND (R)-4-(1-((3-(DIFLUOROMETHYL)-1-METHYL-1H-PYRAZOL-4-YL)SULFONYL)-1-FLUOROETHYL)-N-(ISOXAZOL-3-YL)PIPERIDINE-1-CARBOXAMIDE” (MyoKardia, Inc., priority 2019, published 2022)
